According to patent US20120252741A1, “NOVEL SEMI-SYNTHETIC GLYCOPEPTIDES AS ANTIBACTERIAL AGENTS” (priority 2008, published 2012):
In brackets after ≈: the same amount, converted by molar mass. Like-named read-outs stand apart in the source and are kept apart here.

What was measured:
Type in all cases: cell-based
[1] = system: Staphylococcus aureus 100 (ATCC 29213); test: MIC, broth microdilution, SA 100; details: Staphylococcus aureus, ATCC29213, class symbols, read-out: MIC SA 100
Experimental: (§1) Antibacterial activity in vitro is investigated by broth microdilution method in Meuller-Hinton broth as recommended by NCCLS. All strains tested are clinical isolates either sensitive or resistant to natural glycopeptides. MIC values were determined using the CLSI-recommended broth microdilution procedure (Clinical and Laboratory Standards Institute, Methods for Dilution Antimicrobial Susceptibility Tests for Bacteria That Grow Aerobically; Approved Standard-Seventh Edition.). Automated liquid handlers (Multidrop 384, Labsystems, Helsinki, Finland; Biomek 2000 and Multimek 96, Beckman Coulter, Fullerton Calif.) were used to conduct serial dilutions and liquid transfers. The MIC value for vancomycin is given for comparison. The abbreviations for organisms tested are as follow: SA 100—Staphylococcus aureus 100 (ATCC 29213); SA 757—Staphylococcus aureus 757 (MRSA); SA 2012—Staphylococcus aureus 2012 (VISA); SE 835—Staphylococcus epidermidis 835; SE 831—Staphylococcus epidermidis 831 (MRSE); EFc 101—Enterococcus faecalis 101 (ATCC 29212); EFc 848—Enterococcus faecalis 848 (VRE, Van A); EFcm 800—Enterococcus faecium 800; EFcm 752—Enterococcus faecium 752 (VRE, Van A); SPNE 1195—Streptococcus pneumoniae 1195 (ATCC 49619); SPY 712—Streptococcus pyogenes 712.

[2] = system: Enterococcus faecium 752 (VRE, Van A); test: MIC, broth microdilution, EFcm 752; details: VRE, Van A, class symbols, read-out: MIC E FCM 752
Experimental: as §1

[3] = system: Staphylococcus epidermidis 835; test: MIC, broth microdilution, SE 835; details: Staphylococcus epidermidis, 835, class symbols, read-out: MIC SE 835
Experimental: as §1

Enterococcus faecium 800 = test: MIC, broth microdilution, EFcm 800; details: Enterococcus faecium, 800, class symbols, read-out: MIC E FCM 800
Experimental: as §1

[4] = system: Staphylococcus aureus 2012 (VISA); test: MIC, broth microdilution, SA 2012; details: read-out: MIC SA 2012
Experimental: as §1

[5] = system: Streptococcus pyogenes 712; test: MIC, broth microdilution, SPY 712; details: Streptococcus pyogenes, 712, class symbols, read-out: MIC S PYO 712
Experimental: as §1

[6] = system: Staphylococcus epidermidis 831 (MRSE); test: MIC, broth microdilution, SE 831; details: Staphylococcus epidermidis, read-out: MIC SE 831
Experimental: as §1

[7] = system: Staphylococcus aureus 757 (MRSA); test: MIC, broth microdilution, SA 757; details: read-out: MIC SA 757
Experimental: as §1

[8] = system: Enterococcus faecalis 848 (VRE, Van A); test: MIC, broth microdilution, EFc 848; details: VRE, Van A, class symbols, read-out: MIC E FC 848
Experimental: as §1

[9] = system: Enterococcus faecalis 101 (ATCC 29212); test: MIC, broth microdilution, EFc 101; details: Enterococcus faecalis, ATCC29212, class symbols, read-out: MIC E FC 101
Experimental: as §1

[10] = system: Streptococcus pneumoniae 1195 (ATCC 49619); test: MIC, broth microdilution, SPNE 1195; details: Streptococcus pneumoniae, ATCC49619, class symbols, read-out: MIC S PNE 1195
Experimental: as §1

[11] = Table 2, in the presence of 0.002% Polysorbate 80
[12] = Table 2, in the presence of 0.002% Polysorbate 80, class symbols

Row | Structure (SMILES) | MIC [1, 11] [µg/mL] | MIC [2, 11] [µg/mL] | MIC [3, 11] [µg/mL] | MIC (Enterococcus faecium 800; [11]) [µg/mL] | MIC [4, 12] [µg/mL] | MIC [5, 11] [µg/mL] | MIC [6, 12] [µg/mL] | MIC [7, 12] [µg/mL] | MIC [8, 11] [µg/mL] | MIC [9, 11] [µg/mL] | MIC [10, 11] [µg/mL] | MIC ([1]; Table 1) [µg/mL] | MIC ([2]; Table 1) [µg/mL] | MIC ([3]; Table 1) [µg/mL] | MIC (Enterococcus faecium 800; Table 1) [µg/mL] | MIC ([4]; Table 1, class symbols) [µg/mL] | MIC ([5]; Table 1) [µg/mL] | MIC ([6]; Table 1, class symbols) [µg/mL] | MIC ([7]; Table 1, class symbols) [µg/mL] | MIC ([8]; Table 1) [µg/mL] | also measured
1 | CN[C@H](CC(C)C)C(=O)N[C@H]1C(=O)N[C@@H](CC(=O)NC(=O)c2ccc(OCCCN)c(OCCCN)c2)C(=O)N[C@H]2C(=O)N[C@H]3C(=O)N[C@H](C(=O)N[C@H](C(=O)NC4C5CC6CC(C5)CC4C6)c4cc(O)cc(O)c4-c4cc3ccc4O)[C@H](O)c3ccc(c(Cl)c3)Oc3cc2cc(c3O[C@@H]2O[C@H](CO)[C@@H](O)[C@H](O)[C@H]2O)Oc2ccc(cc2Cl)[C@H]1O (stereo partly drawn) [Compound 163] | 1 to 2 | 4 to 8 | 1 to 2 | 0.5 to 1 | 1 to 2 | 0.01 to 0.5 | 0.01 to 0.5 | 1 to 2 | > 16 | 1 to 2 | 0.5 to 1 | – | – | – | – | – | – | – | – | – | –
2 | CNCCOc1ccc(C(=O)NC(=O)C[C@@H]2NC(=O)[C@H](NC(=O)[C@@H](CC(C)C)NC)[C@H](O)c3ccc(c(Cl)c3)Oc3cc4cc(c3O[C@@H]3O[C@H](CO)[C@@H](O)[C@H](O)[C@H]3O[C@H]3C[C@](C)(N)[C@H](O)[C@H](C)O3)Oc3ccc(cc3Cl)[C@@H](O)[C@@H]3NC(=O)[C@H](NC(=O)[C@@H]4NC2=O)c2ccc(O)c(c2)-c2c(O)cc(O)cc2[C@@H](C(=O)NC2C4CC5CC(C4)CC2C5)NC3=O)cc1 (stereo partly drawn) [Compound 67] | 0.01 to 0.5 | 1 to 2 | 1 to 2 | 0.01 to 0.5 | 1 to 2 | 0.01 to 0.5 | 0.01 to 0.5 | 0.01 to 0.5 | 4 to 8 | 0.01 to 0.5 | – | – | – | – | – | – | – | – | – | – | –
3 | CCCCOc1ccc(S(=O)(=O)NC(=O)C[C@@H]2NC(=O)[C@H](NC(=O)[C@@H](CC(C)C)NC)[C@H](O)c3ccc(c(Cl)c3)Oc3cc4cc(c3O[C@@H]3O[C@H](CO)[C@@H](O)[C@H](O)[C@H]3O)Oc3ccc(cc3Cl)[C@@H](O)[C@@H]3NC(=O)[C@H](NC(=O)[C@@H]4NC2=O)c2ccc(O)c(c2)-c2c(O)cc(O)cc2[C@@H](C(=O)NC2C4CC5CC(C4)CC2C5)NC3=O)cc1 (stereo partly drawn) [Compound 117] | – | – | – | – | – | – | – | – | – | – | – | 0.01 to 0.5 (≈ 0.00605 to 0.303 µM) | 1 to 2 (≈ 0.605 to 1.21 µM) | 0.01 to 0.5 (≈ 0.00605 to 0.303 µM) | 0.01 to 0.5 (≈ 0.00605 to 0.303 µM) | 2 to 4 (≈ 1.21 to 2.42 µM) | 0.01 to 0.5 (≈ 0.00605 to 0.303 µM) | 0.01 to 0.5 (≈ 0.00605 to 0.303 µM) | 0.01 to 0.5 (≈ 0.00605 to 0.303 µM) | 2 to 4 (≈ 1.21 to 2.42 µM) | MIC ([9]; Table 1): 0.01 to 0.5 µg/mL (≈ 0.00605 to 0.303 µM); MIC ([10]; Table 1): 0.01 to 0.5 µg/mL (≈ 0.00605 to 0.303 µM)
4 | CCCCCCCCC(=O)NC(=O)C[C@@H]1NC(=O)[C@H](NC(=O)[C@@H](CC(C)C)NC)[C@H](O)c2ccc(c(Cl)c2)Oc2cc3cc(c2O[C@@H]2O[C@H](CO)[C@@H](O)[C@H](O)[C@H]2O[C@H]2C[C@](C)(N)[C@H](O)[C@H](C)O2)Oc2ccc(cc2Cl)[C@@H](O)[C@@H]2NC(=O)[C@H](NC(=O)[C@@H]3NC1=O)c1ccc(O)c(c1)-c1c(O)cc(O)cc1[C@@H](C(=O)NC1C3CC4CC(C3)CC1C4)NC2=O (stereo partly drawn) [Compound 42] | – | – | – | – | – | – | – | – | – | – | – | 0.01 to 0.5 (≈ 0.0058 to 0.29 µM) | 0.01 to 0.5 (≈ 0.0058 to 0.29 µM) | 0.01 to 0.5 (≈ 0.0058 to 0.29 µM) | 0.01 to 0.5 (≈ 0.0058 to 0.29 µM) | 1 to 2 (≈ 0.58 to 1.16 µM) | 0.01 to 0.5 (≈ 0.0058 to 0.29 µM) | 0.01 to 0.5 (≈ 0.0058 to 0.29 µM) | 0.01 to 0.5 (≈ 0.0058 to 0.29 µM) | 1 to 2 (≈ 0.58 to 1.16 µM) | MIC ([9]; Table 1): 0.01 to 0.5 µg/mL (≈ 0.0058 to 0.29 µM); MIC ([10]; Table 1): 0.01 to 0.5 µg/mL (≈ 0.0058 to 0.29 µM)
5 | CN[C@H](CC(C)C)C(=O)N[C@H]1C(=O)N[C@@H](CC(=O)NC(=O)c2ccc(OCCOC)cc2)C(=O)N[C@H]2C(=O)N[C@H]3C(=O)N[C@H](C(=O)N[C@H](C(=O)NC4C5CC6CC(C5)CC4C6)c4cc(O)cc(O)c4-c4cc3ccc4O)[C@H](O)c3ccc(c(Cl)c3)Oc3cc2cc(c3O[C@@H]2O[C@H](CO)[C@@H](O)[C@H](O)[C@H]2O[C@H]2C[C@](C)(N)[C@H](O)[C@H](C)O2)Oc2ccc(cc2Cl)[C@H]1O (stereo partly drawn) [Compound 65] | 0.5 to 1 | 1 to 2 | 0.5 to 1 | 0.01 to 0.5 | 2 to 4 | 0.01 to 0.5 | 0.01 to 0.5 | 0.01 to 0.5 | 4 to 8 | 0.01 to 0.5 | 0.01 to 0.5 | – | – | – | – | – | – | – | – | – | –
